Target: T1, NL-hA1AR (Homo sapiens, UniProt P30542)
T1 construct: expressed in transfected cells
T1 sequence (P30542 1-326): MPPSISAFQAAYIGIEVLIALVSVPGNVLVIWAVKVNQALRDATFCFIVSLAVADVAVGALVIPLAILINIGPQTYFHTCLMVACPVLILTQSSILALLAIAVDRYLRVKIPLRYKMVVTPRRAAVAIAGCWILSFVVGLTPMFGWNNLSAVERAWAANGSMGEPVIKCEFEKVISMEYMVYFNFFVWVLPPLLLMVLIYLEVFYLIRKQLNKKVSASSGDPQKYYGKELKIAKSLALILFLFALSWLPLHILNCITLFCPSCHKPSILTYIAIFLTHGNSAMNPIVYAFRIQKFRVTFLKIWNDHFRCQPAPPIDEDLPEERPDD
Test: NanoBRET dissociation kinetics, NL-hA1AR HEK293T cells
Assay type: binding
Details: cells prelabeled with 250 nM for 5 h, BRET monitored 60 min
Method: Figure 3 Molecular pharmacology and biochemical characterization of 11 and 12. NanoBRET ligand-binding data were measured in HEK293 cells stably expressing the human NL-A1AR (A–C) or rat NL-A1AR (D–F). […] Data were normalized to maximal BRET signals in the absence of unlabeled competing ligands (total binding, TB). (C, F) NanoBRET dissociation kinetics experiments with 11 (SulfoCy5) performed in human and rat NL-A1AR HEK293T cells, respectively. Cells were treated with 250 nM 11 (SulfoCy5, lilac open circles) for 5 h and CA200645 (black open triangles) for 2 h. […] TS-SNAP-A1AR was purified and separated on an SDS-PAGEgel gel, and direct Cy5 fluorescence was visualized using in-gel fluorescence. […]
The small reduction in the BRET signal observed toward the end of the reads could be mostly likely ascribed to substrate (furimazine) consumption. […] To confirm covalent labeling of A1AR by 11 and 12, HEK293G cells stably expressing a Twin-Strep-SNAP-A1AR(TS-SNAP-A1R) construct were treated with 11 or 12 prior to purification, separation by sodium dodecyl sulfate-polyacrylamide gel electrophoresis (SDS-PAGE) and visualization of labeled samples by in-gel fluorescence (Figure 3G). […]
37 °C for kinetic binding experiments. Emissions were read at 420 nm (80 nm bandpass; […]

For `CCCCn1c(=O)c2[nH]c(C34CCC(C(=O)NCCNC(=O)CCNC(=O)c5ccc(OC(=O)CCCCC[N+]6=C(/C=C/C=C/C=C7/N(C)c8ccc(S(=O)(=O)O)cc8C7(C)C)C(C)(C)c7cc(S(=O)(=O)[O-])ccc76)c(F)c5)(CC3)CC4)nc2n(CCCC)c1=O` [Compound 11, 1-(6-(4-((3-((2-(4-(1,3-Dibutyl-2,6-dioxo-2,3,6,7-tetrahydro-1H-purin-8-yl)bicyclo[2.2.2]octane-1-carboxamido)ethyl)amino)-3-oxopropyl)carbamoyl)-2-fluorophenoxy)-6-oxohexyl)-3,3-dimethyl-2-((1E,3E)-5-((E)-1,3,3-trimethyl-5-sulfoindolin-2-ylidene)penta-1,3-dien-1-yl)-3H-indol-1-ium-5-sulfonate], the “change in BRET signal after addition of 10 μM DPCPX” value was “very little change in the BRET signal”.
